Experimental data as given in patent US12029730B2, “Pharmaceutical composition for preventing or treating cancer, containing N-1H-benzimidazol-2-yl-3-(1H-pyrrole-1-yl)benzamide as active ingredient” (KOREA INSTITUTE OF RADIOLOGICAL & MEDICAL SCIENCES, priority 2018, dated 2024).

Tests used:
Type in all cases: cell-based, human
MCF7 cells [1] = test: Colonogenic assay and western blotting with 2.5 Gy radiation, MCF7; details: for sensitivity to radiation therapy (colony number): MCF7, 2.5 Gy, compared to DMSO, FIG. 10A/10B
Procedure: A colonogenic assay was performed in order to confirm whether the sensitivity to the radiation treatment effect can be increased when MCF7 cancer cell line was treated with MKI-1. First, breast cancer cells MCF7 (500-1000 cells) were placed in a 60-mm tissue culture medium on a 60 mm culture plate, and treated with MASTL kinase inhibitors (AT13148, MKI-1 and GKI-1), respectively, and then was treated with 2.5 Gy radiation by Biobeam GM8000 (Gamma-Gamma-Service Medical GmbH, Leipzig, Germany) and the control group was not treated with radiation. After 10 to 14 days, the cell colonies were fixed with methanol and stained with 0.5% crystal violet, and the results were shown in FIG. 10A, and the number of colonies shown in the above results was quantified using Image J software to show in 10B, and then western blotting was performed and the results thereof were shown in FIG. 10C.

MCF7 cells [2] = test: Tumorsphere formation assay; details: MCF7, cultured 15 days, compared to DMSO, FIG. 8
Procedure: A tumorsphere formation assay was performed in order to determine whether the selected MKI-1 can effectively reduce the formation of tumorsphere in cancer cells, Breast cancer cells MCF7 (2500-10000 cells) was suspended in serum-free DMEM/F12 (weIGENE) containing 1% penicillin, B-27 (1:50; invitrogen), 20 ng/mL epidermal cell growth factor (R&D Systems) and 20 ng/mL fibroblast growth factor (R&D Systems) and cultured on plates with low adhesion rate. After 24 hours, the cells were treated with MASTL kinase inhibitors (AT13148, MKI-1 and GKI-1), respectively, and cultured for 15 days, and then the diameter of the tumorsphere was measured and quantified, which was shown in FIG. 8.

MCF7 cells [3] = test: 3D culture spheroid formation; details: MCF7 3D culture, AT13148 2 μM, GKI-1 10 μM, MKI-1 10 μM, FIG. 9
Procedure: 3D culture was performed according to the protocol of the manufacturing company TheWell Bioscience. It was inoculated into 24-wells containing a DMEM mixture containing 10,000 MCF7 cells in an MCF7 cell:hydrogel solution in a ratio of 1:3 (v/v) and VitroGel™ 3D-RGD diluted with 0.1% PBS in a ratio of 1:3 (v/v) of a hydrogel:diH2O. Thereafter, incubation was performed at 37° C. for 15 minutes to stabilize the VitroGel 3D-RGD hydrogel. To cover the hydrogel, the same volume of DMEM as the hydrogel was added, and the next day, the hydrogel was treated with a DMSO base drug containing DMSO, AT13148 (2 μM), GKI-1 (10 μM) and MKI-1 (10 μM). The medium was exchanged every 2 days for 14 to 20 days.

BT549 cells = test: WST-8 cell viability assay, breast cancer cell line BT549; details: FIG. 6; for cell viability, BT549: 3.70, 11.11, 33.33 and 100 μM
Procedure: (§1) In addition, the cell line in this experiment was distributed from ATCC (American Type Culture Collection; Manassas, VA). Human-derived tumor cell lines, breast cancer cell lines MCF7 and T47D was cultured in DMEM medium containing 10% fetal bovine serum (FBS; HyClone, South Logan, UT) and 1% penicillin/streptomycin (Corning, NY, USA) at 37° C. and 5% CO2, and the BT549 breast cancer cell line was cultured in RPMI 1640 (Welgene, Daegu, Korea) as a medium used under the same conditions. Human-derived normal cell line MCF10A was cultured in DMEM/F12 (Invitrogen) medium containing 5% horse serum (Invitrogen), 1% penicillin/streptomycin, 20 ng/ml EGF (Peprotech, London, UK), […] (Sigma-Aldrich, MO, USA), 100 ng/ml cholera toxin (Cholera Toxin, Sigma-Aldrich) and 10 μg Insulin (Sigma-Aldrich) at 37° C. and 5% CO2.
(§2) In order to confirm whether the selected MKI-1 can kill only cancer cells, an experiment was performed by treating with MKI-1 and measuring whether the cell viability of breast cancer cell lines and normal cell lines was changed. WST-8 analysis (Cyto X™ cell viability assay kit, LPS solution, Daejeon, Korea) was performed according to the manufacturer's protocol. Cancer cells MCF7 and BT549 and normal cell line MCF10A cells were inoculated into a 96-well plate, cultured for 24 hours, and then treated with MASTL kinase inhibitors at various concentrations (3.70, 11.11, 33.33 and 100 μM). Thereafter, the absorbance was measured at 450 nm using a Versamax micro plate reader (Molecular Devices, CA, USA), and the results were shown in FIG. 6.

MCF7 cells [4] = test: WST-8 cell viability assay, breast cancer cell line MCF7; details: for cell viability, MCF7: 3.70, 11.11, 33.33 and 100 μM
Procedure: as §1
(§3) Briefly, MCF7 and MCF10A cells were seeded into 96-well plates, incubated for 24 hours, and then was treated with 42 inhibitor candidates. Among the compounds, the multi-AGC kinase inhibitor AT13148 was used as a positive control. Thereafter, the absorbance was measured at 450 nm using a Versamax microplate reader (Molecular Devices, CA, USA), and the results of the experiment were shown in FIG. 1A.
as §2

[5] = system: CD44^high/CD24^low MCF7 cells; test: Colonogenic assay and western blotting with 2.5 Gy radiation, radioresistant CD44high/CD24low MCF7; details: for sensitivity to radiation therapy (colony number): CD44high/CD24low MCF7, 2.5 Gy, compared to DMSO, FIG. 11A/11B
Procedure: A colonogenic assay was performed in order to confirm whether the sensitivity to the radiation treatment effect was increased even in the CD44^high/CD24^low MCF7 cancer cell line having a radioresistant phenotype, when it was treated with MKI-1. First, breast cancer cells CD44^high/CD24^low MCF7 (500-1000 cells) were placed in a 60-mm tissue culture medium on a 60 mm culture plate, and treated with MASTL kinase inhibitors (AT13148, MKI-1 and GKI-1), respectively, and then was treated with 2.5 Gy radiation by Biobeam GM8000 (Gamma-Gamma-Service Medical GmbH, Leipzig, Germany) and the control group was not treated with radiation. After 10 to 14 days, the cell colonies were fixed with methanol and stained with 0.5% crystal violet, and the results were shown in FIG. 11A, and the number of colonies shown in the above results was quantified using Image J software to show in 11B, and then western blotting was performed and the results thereof were shown in FIG. 11C.

MCF10A cells = test: WST-8 cell viability assay, normal cell line MCF10A; details: for cell viability, normal cell line MCF10A: 3.70, 11.11, 33.33 and 100 μM, FIG. 6
Procedure: as §1, §3, §2

MCF7 cells [6] = test: Colony formation analysis; details: MCF7, cultured 15 days, compared to DMSO, FIG. 7
Procedure: Colony formation analysis was performed to confirm whether the selected MKI-1 can effectively kill cancer cells. First, breast cancer cells MCF7 (500-1000 cells) were cultured in a 60 mm culture plate, and after 24 hours, it was treated with MASTL kinase inhibitors (AT13148, MKI-1 and GKI-1), respectively and cultured for 15 days. Cells were fixed and stained with […] to which methanol was added to quantify the number of colonies, which was shown in FIG. 7.

[7] = MCF7, after radiation treatment, FIG. 10C
[8] = screen of 42 single compounds, FIG. 1A
[9] = CD44high/CD24low MCF7, after radiation treatment, FIG. 11C

SMILES | sensitivity to radiation therapy (colony number) (MCF7 cells [1]) | expression levels of cleaved-PARP and phosphorylated Chk2 (MCF7 cells [1]; [7]) | expression levels of procaspase-2 (MCF7 cells [1]; [7]) | tumorsphere diameter (MCF7 cells [2]) | size of cancer cell spheroid (MCF7 cells [3]) | survival rate of cancer cells, BT549 (BT549 cells; 33.33 μM or more) | cell viability, BT549 (BT549 cells) | survival rate of cancer cells, MCF7 (MCF7 cells [4]; 33.33 μM or more, FIG. 6) | cell viability, MCF7 (MCF7 cells [4]; FIG. 6) | growth of the treated cancer cell line (MCF7) (MCF7 cells [4]; [8]) | sensitivity to radiation therapy (colony number) [5] | expression levels of cleaved-PARP and phosphorylated Chk2 [5, 9] | expression levels of procaspase-2 [5, 9] | cell viability, normal cell line MCF10A (MCF10A cells) | cell viability of normal cell line (MCF10A) (MCF10A cells; [8]) | number of cancer cell colonies (MCF7 cells [6])
O=C(Nc1nc2ccccc2[nH]1)c1cccc(-n2cccc2)c1 [MKI-1, N-1H-benzimidazol-2-yl-3-(1H-pyrrol-1-yl) benzamide] | significantly higher | increased | decreased | significantly decreased | significantly reduced | significantly reduced | decreases cell viability in a dose-dependent manner | significantly reduced | decreases cell viability in a dose-dependent manner | significantly inhibited | significant increase in sensitivity to radiation treatment | increased | decreased | hardly decrease cell viability | maintained as high as that of the control group DMSO | significantly reduced
Clc1ccc(Nc2cccc(-c3cn[nH]c3)c2)cc1 [GKI-1, N-(4-chlorophenyl)-3-(1H-pyrazol-4-yl)aniline, reference compound] | no synergistic effect | – | – | hardly decreased | hardly decreased | – | decreases cell viability in a dose-dependent manner | – | decreases cell viability in a dose-dependent manner | – | no synergistic effect | – | – | hardly decrease cell viability | – | hardly decreased
